In patent publication US8163909B2, “Substituted hydroxyethyl amine compounds as beta-secretase modulators and methods of use” (Amgen Inc., priority 2007, dated 2012):
Like-named read-outs stand apart in the source and are kept apart here.

Assays:
[1] = tested on: Aβ40 in conditioned medium of cells stably expressing Amyloid Precursor Protein (APP); assay: In vitro BACE cell-based assay (Aβ40 in conditioned medium, sandwich ELISA); settings: Homo sapiens;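 also: compounds added as a dilution series, secreted peptide quantified by europium time-resolved fluorescence readout, potency fitted from percent of control versus compound concentration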
[2] = Microsomal stability assay, rat liver microsomes;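 also: rat liver microsomes (0.25 mg/mL) with about 1 µM compound plus 1 mM NADPH, pH 7.4, 37 °C for 30 min, parent left measured by LC-MS/MS against 0 min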
[3] = biological target: CYP3A4 (CYP3A) (Homo sapiens, UniProt P08684); assay: in vitro; settings: microsomes, pH 7.4;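 also: inhibition of CYP3A-mediated 1-hydroxymidazolam formation after 10 min incubation with NADPH, quantified by HPLC MS relative to metabolite produced without test compound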
[4] = biological target: Beta Secretase enzyme (BACE) (Homo sapiens, UniProt P56817); assay: In vitro enzymatic BACE FRET (fluorescence resonance energy transfer) assay; assay type: biochemical;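 also: fluorescence read after 1 h with 50 nM quenched peptide substrate spanning the BACE cleavage site, in pH 4.2 acetate buffer containing 10% DMSO and nonionic detergent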
[5] = Microsomal stability assay, human liver microsomes;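 also: pooled human liver microsomes at 0.25 mg/mL with 1 µM compound and NADPH at 37 °C, pH 7.4, for 30 min, unchanged parent quantified by LC-MS/MS against the 0 min sample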
[6] = biological target: CYP2D6 (Homo sapiens, UniProt P10635); assay: CYP2D6 inhibition assay (bufuralol, pooled human liver microsomes)
[7] = HEK293, HEK cells, read-out: HEK cell assay (IC50)
[8] = read-out: BACE1 FRET assay (IC50)
[9] = HEK293, Table 2, HEK cells, read-out: HEK cell assay
[10] = Table 2, read-out: BACE1 FRET assay
[11] = 2D6 IC50, CYP enzyme inhibition
[12] = HEK293, HEK cell-based assay IC50, read-out: HEK cell assay
[13] = BACE enzyme assay IC50, read-out: BACE1 FRET assay
[14] = 2D6 IC50 (uM), CYP2D6 inhibition
[15] = HEK293, HEK cells, read-out: HEK cell assay
[16] = BACE enzyme assay, read-out: BACE1 FRET assay
[17] = 2D6 IC50 (uM), CYP enzyme inhibition
[18] = HEK293, HEK cell-based assay, IC50's in uM, read-out: HEK cell assay
[19] = BACE enzyme assay, IC50's in uM, read-out: BACE1 FRET assay

Chain of CYP2D6 (P10635 whole entry): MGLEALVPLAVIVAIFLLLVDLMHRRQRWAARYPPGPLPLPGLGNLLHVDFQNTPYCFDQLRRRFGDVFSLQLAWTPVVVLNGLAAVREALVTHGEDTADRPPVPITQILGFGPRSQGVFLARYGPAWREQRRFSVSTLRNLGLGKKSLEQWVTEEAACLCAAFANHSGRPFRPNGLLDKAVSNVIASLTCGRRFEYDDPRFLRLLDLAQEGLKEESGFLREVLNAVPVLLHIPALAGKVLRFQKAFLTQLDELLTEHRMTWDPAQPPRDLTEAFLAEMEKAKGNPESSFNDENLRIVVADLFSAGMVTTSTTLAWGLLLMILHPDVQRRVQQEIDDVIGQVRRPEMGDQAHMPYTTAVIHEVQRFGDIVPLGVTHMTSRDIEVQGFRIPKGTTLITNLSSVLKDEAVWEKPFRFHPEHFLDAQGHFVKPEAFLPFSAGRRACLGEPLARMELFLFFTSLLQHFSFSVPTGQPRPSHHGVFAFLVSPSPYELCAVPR
Chain of Beta Secretase enzyme (BACE) (P56817 46-501): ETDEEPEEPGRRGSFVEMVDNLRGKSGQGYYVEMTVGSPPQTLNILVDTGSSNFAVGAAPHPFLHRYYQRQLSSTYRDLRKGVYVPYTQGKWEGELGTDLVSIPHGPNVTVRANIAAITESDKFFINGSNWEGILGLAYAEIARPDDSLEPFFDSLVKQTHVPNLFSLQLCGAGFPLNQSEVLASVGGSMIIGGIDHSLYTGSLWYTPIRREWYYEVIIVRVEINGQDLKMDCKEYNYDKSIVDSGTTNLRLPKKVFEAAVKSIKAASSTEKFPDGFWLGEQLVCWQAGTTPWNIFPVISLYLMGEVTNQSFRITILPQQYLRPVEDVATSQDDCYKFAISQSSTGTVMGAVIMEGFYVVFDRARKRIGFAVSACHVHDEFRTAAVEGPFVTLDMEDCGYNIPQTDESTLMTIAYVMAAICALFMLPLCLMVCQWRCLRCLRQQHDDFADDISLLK
Chain of CYP3A4 (CYP3A) (P08684 2-503): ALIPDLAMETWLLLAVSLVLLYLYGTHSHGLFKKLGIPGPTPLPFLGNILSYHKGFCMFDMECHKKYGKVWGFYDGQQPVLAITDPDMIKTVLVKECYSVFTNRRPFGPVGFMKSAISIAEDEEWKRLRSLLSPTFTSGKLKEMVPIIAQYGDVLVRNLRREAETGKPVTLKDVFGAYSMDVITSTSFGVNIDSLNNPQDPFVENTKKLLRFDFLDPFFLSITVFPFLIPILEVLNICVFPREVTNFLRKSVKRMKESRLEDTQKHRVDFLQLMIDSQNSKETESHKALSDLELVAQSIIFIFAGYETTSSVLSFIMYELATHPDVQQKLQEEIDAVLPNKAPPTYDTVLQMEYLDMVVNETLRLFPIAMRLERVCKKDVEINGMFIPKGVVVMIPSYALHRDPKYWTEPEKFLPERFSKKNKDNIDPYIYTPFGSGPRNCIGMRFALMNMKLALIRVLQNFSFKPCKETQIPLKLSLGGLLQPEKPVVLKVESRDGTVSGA

Row | SMILES | RLM ([2]; rat liver microsomes) | IC50 [3] | HLM ([5]; human liver microsomes) | RLM ([2]; rat liver microsomal data) | HLM ([5]; human liver microsomal data) | IC50 [6, 17] | further results
1 | CC(=O)N[C@@H](Cc1ccc(F)cc1)[C@H](O)CN[C@H]1CC2(CCC2)Oc2c1cc(CC(C)(C)C)nc2Nc1ccccc1 [compound 610] | 213 µL/min/mg | ≥ 27000 nM | 102 µL/min/mg | – | – | – | IC50 [1, 7]: > 10 µM; IC50 [4, 8]: 0.199 µM; IC50 ([6]; 2D6 IC50, CYP2D6 inhibition): ≥ 27 µM
2 | COCC(=O)N[C@@H](Cc1ccc2c(c1)OCO2)[C@H](O)CN[C@H]1CC2(CCC2)Oc2ncc(CCC(F)(F)F)cc21 [compound 445] | – | 200 nM | – | 121 µL/min/mg | 24 µL/min/mg | – | IC50 [1, 9]: 0.621 µM; IC50 [4, 10]: 0.754 µM; IC50 [6, 11]: 4.1 µM
3 | C#Cc1cc(F)cc(C[C@H](NC(C)=O)[C@H](O)CN[C@H]2CC3(CCC3)Oc3ncc(CC(C)(C)C)cc32)c1 [compound 713, N-((1S,2R)-3-(((4′S)-6′-(2,2-dimethylpropyl)-3′,4′-dihydrospiro[cyclobutane-1,2′-pyrano[2,3-b]pyridin]-4′-yl)amino)-1-(3-ethynyl-5-fluorobenzyl)-2-hydroxypropyl)acetamide] | 58 µL/min/mg | 100 nM | 75 µL/min/mg | – | – | – | IC50 [1, 12]: 0.015 µM; IC50 [4, 13]: 0.003 µM; IC50 [6, 14]: 1.2 µM
4 | CO[C@H](C)C(=O)N[C@@H](Cc1cc(F)cc(F)c1)[C@H](O)CN[C@H]1CC2(CCC2)Oc2c(-c3cncs3)cc(CC(C)C)cc21 [compound 491] | – | 200 nM | – | 285 µL/min/mg | 345 µL/min/mg | 6.2 µM | IC50 [1, 15]: 0.036 µM; IC50 [4, 16]: 0.004 µM
5 | COCC(=O)N[C@@H](Cc1cccc(-c2ncco2)c1)[C@H](O)CN[C@H]1CC2(CCC2)Oc2ncc(CC(C)C)cc21 [compound 804, N-((1S,2R)-2-hydroxy-3-(((4′S)-6′-(2-methylpropyl)-3′,4′-dihydrospiro[cyclobutane-1,2′-pyrano[2,3-b]pyridin]-4′-yl)amino)-1-(3-(1,3-oxazol-2-yl)benzyl)propyl)-2-methoxyacetamide] | – | 200 nM | – | 43 µL/min/mg | 61 µL/min/mg | 2.5 µM | IC50 [1, 18]: 0.03 µM; IC50 [4, 19]: 0.009 µM
6 | COCC(=O)N[C@@H](Cc1cc(F)cc(-c2nc(C)cs2)c1)[C@H](O)CN[C@H]1CC2(CCC2)Oc2ncc(CC(C)C)cc21 [compound 733] | 399 µL/min/mg | ≤ 30 nM | 249 µL/min/mg | – | – | – | IC50 [1, 12]: 0.021 µM; IC50 [4, 13]: 0.008 µM; IC50 [6, 14]: 4.5 µM
7 | CC[C@@H](OC)C(=O)N[C@@H](Cc1ccc(F)cc1)[C@H](O)CN[C@H]1CC2(CCC2)Oc2ncc(CC(C)(C)C)cc21 [compound 566] | – | 300 nM | – | 590 µL/min/mg | 392 µL/min/mg | 13 µM | IC50 [1, 15]: 0.165 µM; IC50 [4, 16]: 0.026 µM
8 | CC(C)(C)Cc1cnc2c(c1)[C@@H](NC[C@@H](O)[C@H](Cc1ccc3c(c1)OCO3)NC(=O)C1CCS(=O)(=O)C1)CC1(CCC1)O2 (stereo partly drawn) [compound 779] | – | 100 nM | – | 66 µL/min/mg | 36 µL/min/mg | 3.9 µM | IC50 [1, 18]: 0.075 µM; IC50 [4, 19]: 0.057 µM
9 | CO[C@H](C)C(=O)N[C@@H](Cc1ccc2c(c1)OCO2)[C@H](O)CN[C@H]1CC2(CCC2)Oc2c1cc(CC(C)(C)C)nc2N(C)C [compound 444] | – | 7500 nM | – | 662 µL/min/mg | 399 µL/min/mg | – | IC50 [1, 9]: 0.777 µM; IC50 [4, 10]: 0.298 µM; IC50 [6, 11]: 9.4 µM
10 | COCC(=O)N[C@@H](Cc1cccc(F)c1)[C@H](O)CN[C@@H]1CC2(CCC2)Oc2c1cc(CC(C)(C)C)nc2-n1ccnc1 [compound 502] | – | 100 nM | – | 158 µL/min/mg | 54 µL/min/mg | 0.8 µM | IC50 [1, 15]: 1.85 µM; IC50 [4, 16]: 2 µM
11 | COCC(=O)N[C@@H](Cc1cc(F)cc(F)c1)[C@H](O)CN[C@H]1CC2(CCC2)Oc2c1cc(CC(C)C)nc2-c1cncn1C [compound 715] | 34 µL/min/mg | ≤ 30 nM | 19 µL/min/mg | – | – | – | IC50 [1, 12]: 0.016 µM; IC50 [4, 13]: 0.02 µM; IC50 [6, 14]: 1.8 µM
12 | CO[C@H](C)C(=O)N[C@@H](Cc1ccc2c(c1)OCO2)[C@H](O)CN[C@H]1CC2(CCC2)Oc2nc3c(cc21)[C@H](C(C)C)CO3 [compound 665] | 126 µL/min/mg | 200 nM | 61 µL/min/mg | – | – | – | IC50 [1, 7]: 0.249 µM; IC50 [4, 8]: 0.927 µM; IC50 ([6]; 2D6 IC50, CYP2D6 inhibition): 4 µM
13 | COCC(=O)N[C@@H](Cc1cccc(F)c1)[C@H](O)CN[C@H]1CC2(CCC2)Oc2c1cc([C@H](n1ccnc1)C(C)(C)C)cc2-n1ccnc1 [compound 563] | – | 100 nM | – | 40 µL/min/mg | 40 µL/min/mg | 0.4 µM | IC50 [1, 15]: > 10 µM; IC50 [4, 16]: 12 µM
14 | COCC(=O)N[C@@H](Cc1ccnc(OC)c1)[C@H](O)CN[C@H]1CC2(CCC2)Oc2ncc(CC(C)(C)C)cc21 [compound 474] | – | 2000 nM | – | 174 µL/min/mg | 172 µL/min/mg | – | IC50 [1, 9]: 0.022 µM; IC50 [4, 10]: 0.013 µM; IC50 [6, 11]: 6.5 µM
15 | Cc1ccccc1CN1CCO[C@@H](C(=O)N[C@@H](Cc2ccc(F)cc2)[C@H](O)CN[C@H]2CC3(CCC3)Oc3ncc(CC(C)(C)C)cc32)C1 [compound 692] | 590 µL/min/mg | 200 nM | 706 µL/min/mg | – | – | – | IC50 [1, 12]: 0.024 µM; IC50 [4, 13]: 0.013 µM; IC50 [6, 14]: 5.1 µM
16 | COCC(=O)N[C@@H](Cc1cc(F)cc(Cl)c1)[C@H](O)CN[C@H]1CC2(CCC2)Oc2ncc(CC(C)(F)F)cc21 [compound 799] | – | 500 nM | – | 236.5 µL/min/mg | 663 µL/min/mg | 4.95 µM | IC50 [1, 18]: 0.019 µM; IC50 [4, 19]: 0.008 µM
17 | COCC(=O)N[C@@H](Cc1cc(F)cc(F)c1)[C@H](O)CN[C@H]1CC2(CCC2)Oc2c(-c3cncn3C)cc(CC(C)C)cc21 [compound 631] | 209 µL/min/mg | 100 nM | 36 µL/min/mg | – | – | – | IC50 [1, 7]: 0.004 µM; IC50 [4, 8]: 0.019 µM; IC50 ([6]; 2D6 IC50, CYP2D6 inhibition): 3.9 µM
18 | CC(C)Cc1cnc2c(c1)[C@@H](NC[C@@H](O)[C@H](Cc1ccc3c(c1)OCO3)NC(=O)[C@H]1CCCO1)CC1(CCC1)O2 [compound 551] | – | 100 nM | – | 112 µL/min/mg | 33 µL/min/mg | 5.7 µM | IC50 [1, 15]: 0.367 µM; IC50 [4, 16]: 0.044 µM
19 | CC(=O)N[C@@H](Cc1ccc(F)c(-c2nccs2)c1)[C@H](O)CN[C@H]1CC2(CCC2)Oc2ncc(CC(C)(C)C)cc21 [compound 621, N-((1S,2R)-3-(((4′S)-6′-(2,2-dimethylpropyl)-3′,4′-dihydrospiro[cyclobutane-1,2′-pyrano[2,3-b]pyridin]-4′-yl)amino)-1-(4-fluoro-3-(1,3-thiazol-2-yl)benzyl)-2-hydroxypropyl)acetamide] | 64 µL/min/mg | 160 nM | 45 µL/min/mg | – | – | – | IC50 [1, 7]: 0.01 µM; IC50 [4, 8]: 0.001 µM; IC50 ([6]; 2D6 IC50, CYP2D6 inhibition): 0.9 µM
20 | CCOCC(=O)N[C@@H](Cc1cc(F)cc(-c2nccs2)c1)[C@H](O)CN[C@H]1CC2(CCC2)Oc2ncc(CC(C)(C)C)cc21 [compound 862, N-((1S,2R)-3-(((4′S)-6′-(2,2-dimethylpropyl)-3′,4′-dihydrospiro[cyclobutane-1,2′-pyrano[2,3-b]pyridin]-4′-yl)amino)-1-(3-fluoro-5-(1,3-thiazol-2-yl)benzyl)-2-hydroxypropyl)-2-ethoxyacetamide] | – | 300 nM | – | 64 µL/min/mg | 43 µL/min/mg | – | IC50 ([1]; HEK293, cell-based assay, HEK cells, IC50's in uM, read-out: HEK cell assay): 0.009 µM; IC50 [4, 19]: 0.004 µM; IC50 [6, 11]: 0.65 µM
